Test results: patent US10800772B2 (Gilead Sciences, Inc., priority 2016, dated 2020)
Like-named read-outs stand apart in the source and are kept apart here.

Key:
Type in all cases: cell-based, HIV-1
HIV-IIIb IN T174I DE = experiment: Antiviral assay in MT4 cells, HIV-IIIb IN T174I DE virus (from dose escalation passaging); settings: Human immunodeficiency virus 1, IIIB, MT4, 120 h, read-out: T174I DE EC50, MT4 cells, HIV-IIIb IN T174I DE (dose escalation), 5 days, CellTiter-Glo
How it was run: (§1)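 Compounds were titrated as 3-fold serial dilutions at 10 concentrations, in quadruplicate, against 2000 MT4 cells/well that had been infected for 3 h with HIV-IIIb at 0.004 m.o.i. Viruses were wildtype or integrase T174I mutants from breakthrough selection or dose-escalation passaging; mock-infected cells were run in parallel. After 5 days' culture, EC50 was derived as 50% reduction of CellTiter-Glo luminescence, which reflects HIV-1 replication.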

HIV-IIIb IN T174I BT = experiment: Antiviral assay in MT4 cells, HIV-IIIb IN T174I BT virus (from viral breakthrough); settings: Human immunodeficiency virus 1, IIIB, MT4, 120 h, read-out: T174I BT EC50, MT4 cells, HIV-IIIb IN T174I BT (viral breakthrough), 5 days, CellTiter-Glo
How it was run: as §1

HIV-IIIb (wildtype) = experiment: Antiviral assay in MT4 cells, HIV-IIIb wildtype; settings: read-out: WT EC50
How it was run: as §1

[1] = Human immunodeficiency virus 1, IIIB, MT4, 120 h

| Structure (SMILES) | EC50 (HIV-IIIb IN T174I DE) [nM] | EC50 (HIV-IIIb IN T174I BT) [nM] | EC50 (HIV-IIIb (wildtype); [1]) [nM] | EC50 (HIV-IIIb (wildtype); Human immunodeficiency virus 1, 120 h, MT4 cells, HIV-IIIb wildtype, 5 days, CellTiter-Glo) [nM] |
| --- | --- | --- | --- | --- |
| Cc1cc2nc(-c3ccc4c(c3)c(C3CCN(C)C3)nn4C)sc2c(-c2ccc(Cl)cc2)c1[C@H](OC(C)(C)C)C(=O)O (stereo partly drawn) [Compound 63, (2S)-2-(tert-butoxy)-2-(7-(4-chlorophenyl)-5-methyl-2-(1-methyl-3-(1-methylpyrrolidin-3-yl)-1H-indazol-5-yl)benzo[d]thiazol-6-yl)acetic acid] | 13200 | 2800 | 10 |  |
| Cc1cc2nc(-c3ccc4c(c3)c(C3CCN(C(=O)C5(C)CCCO5)CC3)nn4C)sc2c(-c2ccc(Cl)cc2)c1[C@H](OC(C)(C)C)C(=O)O (stereo partly drawn) [Compound 158, (2S)-2-(tert-butoxy)-2-(7-(4-chloro-phenyl)-5-methyl-2-(1-methyl-3-(1-(2-methyltetrahydro-furan-2-carbonyl)piperidin-4-yl)-1H-indazol-5-yl)benzo [d]thiazol-6-yl) acetic acid] | 1670 | 1300 | 11 |  |
| CCOC(=O)N1CC(N2CCC(c3nn(C)c4ncc(-c5nc6cc(C)c([C@H](OC(C)(C)C)C(=O)O)c(-c7ccc(Cl)cc7)c6s5)cc34)CC2)C1 [Compound 115, (S)-2-(tert-butoxy)-2-(7-(4-chlorophenyl)-2-(3-(1-(1-(ethoxycarbonyl)azetidin-3-yl)piperidin-4-yl)-1-methyl-1H-pyrazolo[3,4-b]pyridin-5-yl)-5-methylbenzo[d]thiazol-6-yl)acetic acid] | 2450 | 1600 | 14 |  |
| Cc1cc2nc(-c3ccc4c(c3)c(C3CCN(C(=O)C5COC5)CC3)nn4C)sc2c(-c2ccc(Cl)cc2)c1[C@H](OC(C)(C)C)C(=O)O [Compound 161, (S)-2-(tert-butoxy)-2-(7-(4-chloro-phenyl)-5-methyl-2-(1-methyl-3-(1-(oxetane-3-carbonyl)piperidin-4-yl)-1H-indazol-5-yl)benzo[d]thiazol-6-yl)acetic acid] | 600 | 316 | 18 |  |
| CN[C@@H]1CCN(c2nn(C)c3ccc(-c4nc5cc(C)c([C@H](OC(C)(C)C)C(=O)O)c(-c6ccc(Cl)cc6)c5s4)cc23)C1 [Compound 95, (S)-2-(tert-butoxy)-2-(7-(4-chlorophenyl)-5-methyl-2-(1-methyl-3-((R)-3-(methylamino)pyrrolidin-1-yl)-1H-indazol-5-yl)benzo[d]thiazol-6-yl)acetic acid] | 11500 | 1750 | 41 |  |
| COC(=O)N1CC[C@@H](N2CCC(c3nn(C)c4ccc(-c5nc6cc(C)c([C@H](OC(C)(C)C)C(=O)O)c(-c7ccc(Cl)cc7)c6s5)cc34)CC2)C1 [Compound 165, (S)-2-(tert-butoxy)-2-(7-(4-chloro-phenyl)-2-(3-(1-((R)-1-(methoxy-carbonyl)pyrrolidin-3-yl)piperidin-4-yl)-1-methyl-1H-indazol-5-yl)-5-methylbenzo[d]thiazol-6-yl) acetic acid] | 182 | 118 | 5 |  |
| Cc1cc2nc(-c3ccc4c(c3)c(C3CN(C(C)(C)C)C3)nn4C)sc2c(-c2ccc(Cl)cc2)c1[C@H](OC1CC1)C(=O)O [Compound 60, (S)-2-(2-(3-(1-(tert-butyl)azetidin-3-yl)-1-methyl-1H-indazol-5-yl)-7-(4-chlorophenyl)-5-methylbenzo[d]thiazol-6-yl)-2-cyclopropoxyacetic acid] | 692 | 477 | 31 |  |
| COC(=O)N1CC[C@@H](N2CCC(c3cn(C)c4ncc(-c5nc6cc(C)c([C@H](OC(C)(C)C)C(=O)O)c(-c7ccc(Cl)cc7)c6s5)cc34)CC2)C1 [Compound 201, (S)-2-(tert-butoxy)-2-(7-(4-chloro-phenyl)-2-(3-(1-((R)-1-(methoxy-carbonyl)pyrrolidin-3-yl)piperidin-4-yl)-1-methyl-1H-pyrrolo[2,3-b]pyridin-5-yl)-5-methylbenzo[d]thiazol-6-yl) acetic acid] | 530 | 92 | 7 |  |
| [2H]C([2H])([2H])n1nc(C2CCN(C3CN(C(=O)OC)C3)CC2)c2nc(-c3nc4cc(C)c([C@H](OC(C)(C)C)C(=O)O)c(-c5ccc(Cl)cc5)c4s3)ccc21 [Compound 191, (S)-2-(tert-butoxy)-2-(7-(4-chloro-phenyl)-2-(3-(1-(1-(methoxycarbonyl)azetidin-3-yl)piperidin-4-yl)-1-(methyl-d3)-1H-pyrazolo[4,3-b]pyridin-5-yl)-5-methylbenzo[d]thiazol-6-yl) acetic acid] | 108 | 55 | 2 |  |
| Cc1cc2nc(-c3ccc4c(c3)c(N3CC5(CN(C)C5)C3)nn4C)sc2c(-c2ccc(Cl)cc2)c1[C@H](OC(C)(C)C)C(=O)O [Compound 89, (S)-2-(tert-butoxy)-2-(7-(4-chlorophenyl)-5-methyl-2-(1-methyl-3-(6-methyl-2,6-diazaspiro[3.3]heptan-2-yl)-1H-indazol-5-yl)benzo[d]thiazol-6-yl)acetic acid] | 57000 | 57000 | 107 |  |
| Cc1cc2nc(-c3ccc4c(c3)c(C3CCN(C5CN(C)C5)CC3)nn4C)sc2c(-c2ccc(Cl)cc2)c1[C@H](OC(C)(C)C)C(=O)O [Compound 31, (S)-2-(tert-butoxy)-2-(7-(4-chlorophenyl)-5-methyl-2-(1-methyl-3-(1-(1-methylazetidin-3-yl)piperidin-4-yl)-1H-indazol-5-yl)benzo[d]thiazol-6-yl)acetic acid] | 236 | 138 | 12 |  |
| Cc1cc2nc(-c3ccc4c(c3)c(C3CCN(C5COC5)CC3)nn4CC(F)F)sc2c(-c2ccc(Cl)cc2)c1[C@H](OC(C)(C)C)C(=O)O [Compound 42, (S)-2-(tert-butoxy)-2-(7-(4-chlorophenyl)-2-(1-(2,2-difluoroethyl)-3-(1-(oxetan-3-yl)piperidin-4-yl)-1H-indazol-5-yl)-5-methylbenzo[d]thiazol-6-yl)acetic acid] | 5710 | 5710 | 5040 |  |
| Cc1cc2nc(-c3ccc4c(n3)c(C3CCN([C@@H]5CCN(C)C5)CC3)nn4C)sc2c(-c2ccc(Cl)cc2)c1[C@H](OC(C)(C)C)C(=O)O [Compound 171, (S)-2-(tert-butoxy)-2-(7-(4-chloro-phenyl)-5-methyl-2-(1-methyl-3-(1-((R)-1-methyl-pyrrolidin-3-yl)piperidin-4-yl)-1H-pyrazolo[4,3-b]pyridin-5-yl)benzo[d]thiazol-6-yl)acetic acid] | 239 | 98 | 5 |  |
| Cc1cc2nc(-c3ccc4c(n3)c(C3CCN(C5COC5)CC3)nn4C(F)F)sc2c(-c2ccc(Cl)cc2)c1[C@H](OC(C)(C)C)C(=O)O [Compound 194, (S)-2-(tert-butoxy)-2-(7-(4-chloro-phenyl)-2-(1-(difluoromethyl)-3-(1-(oxetan-3-yl)piperidin-4-yl)-1H-pyrazolo [4,3-b]pyridin-5-yl)-5-methylbenzo [d]thiazol-6-yl) acetic acid] | 300 | 126 | 4 |  |
| CC(=O)N1CC(N2CCC(c3cn(C)c4ncc(-c5nc6cc(C)c([C@H](OC(C)(C)C)C(=O)O)c(-c7ccc(Cl)cc7)c6s5)nc34)CC2)C1 [Compound 200, (S)-2-(2-(7-(1-(1-acetylazetidin-3-yl)piperidin-4-yl)-5-methyl-5H-pyrrolo[2,3-b]pyrazin-2-yl)-7-(4-chlorophenyl)-5-methylbenzo [d]thiazol-6-yl)-2-(tert-butoxy) acetic acid] | 241 | 90 | 1 |  |
| Cc1cc2nc(-c3ccc4c(c3)c(N3CC5CC(C3)N5C)nn4C)sc2c(-c2ccc(Cl)cc2)c1[C@H](OC(C)(C)C)C(=O)O [Compound 101, (2S)-2-(tert-butoxy)-2-(7-(4-chlorophenyl)-5-methyl-2-(1-methyl-3-(6-methyl-3,6-diazabicyclo[3.1.1]heptan-3-yl)-1H-indazol-5-yl)benzo[d]thiazol-6-yl)acetic Acid] | 57000 | 57000 |  | 58 |
| COCCN1CCC(c2nn(C)c3ccc(-c4nc5cc(C)c([C@H](OC(C)(C)C)C(=O)O)c(-c6ccc(Cl)cc6)c5s4)cc23)C1 (stereo partly drawn) [Compound 65, (2S)-2-(tert-butoxy)-2-(7-(4-chlorophenyl)-2-(3-(1-(2-methoxyethyl)pyrrolidin-3-yl)-1-methyl-1H-indazol-5-yl)-5-methylbenzo[d]thiazol-6-yl)acetic acid] | 2120 | 752 | 4 |  |
| CC(=O)N1CC(N2CCC(c3nn(C)c4ncc(-c5nc6cc(C)c([C@H](OC(C)(C)C)C(=O)O)c(-c7ccc(Cl)cc7)c6s5)cc34)CC2)C1 [Compound 117, (S)-2-(2-(3-(1-(1-acetylazetidin-3-yl)piperidin-4-yl)-1-methyl-1H-pyrazolo[3,4-b]pyridin-5-yl)-7-(4-chlorophenyl)-5-methylbenzo[d]thiazol-6-yl)-2-(tert-butoxy)acetic acid] | 1690 | 1180 | 27 |  |
| Cc1cc2nc(-c3ccc4c(c3)c(N3CCN(CCN5CCOCC5)C3=O)nn4C)sc2c(-c2ccc(Cl)cc2)c1[C@H](OC(C)(C)C)C(=O)O [Compound 83, (S)-2-(tert-butoxy)-2-(7-(4-chlorophenyl)-5-methyl-2-(1-methyl-3-(3-(2-morpholinoethyl)-2-oxoimidazolidin-1-yl)-1H-indazol-5-yl)benzo[d]thiazol-6-yl)acetic acid] | 2810 | 2230 | 17 |  |
